Here are results for 11 molecules from publication PMC12136037, “Type II kinase inhibitors that target Parkinson’s disease–associated LRRK2” (Science Advances, 2025).

What all share (experiment): DSF 100 kinase selectivity screen;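 note: compound tested at 20 µM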
Assay type in all cases: binding

The target of assay [1] is T1, ~100 representative kinases (Homo sapiens, UniProt O96017).
T1 construct: Recombinant protein kinase domains with a concentration of 2 μM
Conditions: Protein CHEK2; average of three replicates. Put shortly: (§1)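 Each kinase domain, at 2 μM, is mixed with 20 μM test compound and SYPRO Orange in Hepes (20 mM, pH 7.5) with 500 mM NaCl. Temperature is then raised at 3°C/min and fluorescence-monitored unfolding yields the melting temperature change, ΔTm in degrees Celsius.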

Assay [2] deals with T2, ~100 representative kinases (Homo sapiens, UniProt P17948).
T2 construct: Recombinant protein kinase domains with a concentration of 2 μM
Conditions: protein FLT1; average of three replicates. Put shortly:
as §1

The target of assay [3] is T3, ~100 representative kinases (Homo sapiens, UniProt P19784).
T3 construct: Recombinant protein kinase domains with a concentration of 2 μM
Conditions: Protein CK2A2; average of three replicates. Put shortly:
as §1

Assay [4] addresses T4, ~100 representative kinases (Homo sapiens, UniProt P49137).
T4 construct: Recombinant protein kinase domains with a concentration of 2 μM
Conditions: protein MAPKAPK2; average of three replicates. Put shortly: as §1

Assay [5] has as its target T5, ~100 representative kinases (Homo sapiens, UniProt P51955).
T5 construct: Recombinant protein kinase domains with a concentration of 2 μM
T5 sequence (P51955 1-445): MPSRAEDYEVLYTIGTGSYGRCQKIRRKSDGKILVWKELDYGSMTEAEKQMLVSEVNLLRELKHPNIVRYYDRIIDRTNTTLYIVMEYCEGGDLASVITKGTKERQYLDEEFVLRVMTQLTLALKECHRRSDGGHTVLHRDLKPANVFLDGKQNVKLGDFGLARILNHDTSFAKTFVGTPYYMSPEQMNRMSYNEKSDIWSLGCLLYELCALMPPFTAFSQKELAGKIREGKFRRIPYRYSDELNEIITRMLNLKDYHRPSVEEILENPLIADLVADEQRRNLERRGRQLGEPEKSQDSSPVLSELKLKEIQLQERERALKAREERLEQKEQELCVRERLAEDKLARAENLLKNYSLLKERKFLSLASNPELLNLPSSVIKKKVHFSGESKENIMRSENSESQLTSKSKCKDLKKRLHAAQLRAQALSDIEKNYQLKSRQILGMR
Conditions: protein NEK2; average of three replicates. Put shortly: as §1

The target in assay [6] is T6, ~100 representative kinases (Homo sapiens, UniProt P54762).
T6 construct: Recombinant protein kinase domains with a concentration of 2 μM
T6 sequence (P54762 18-984): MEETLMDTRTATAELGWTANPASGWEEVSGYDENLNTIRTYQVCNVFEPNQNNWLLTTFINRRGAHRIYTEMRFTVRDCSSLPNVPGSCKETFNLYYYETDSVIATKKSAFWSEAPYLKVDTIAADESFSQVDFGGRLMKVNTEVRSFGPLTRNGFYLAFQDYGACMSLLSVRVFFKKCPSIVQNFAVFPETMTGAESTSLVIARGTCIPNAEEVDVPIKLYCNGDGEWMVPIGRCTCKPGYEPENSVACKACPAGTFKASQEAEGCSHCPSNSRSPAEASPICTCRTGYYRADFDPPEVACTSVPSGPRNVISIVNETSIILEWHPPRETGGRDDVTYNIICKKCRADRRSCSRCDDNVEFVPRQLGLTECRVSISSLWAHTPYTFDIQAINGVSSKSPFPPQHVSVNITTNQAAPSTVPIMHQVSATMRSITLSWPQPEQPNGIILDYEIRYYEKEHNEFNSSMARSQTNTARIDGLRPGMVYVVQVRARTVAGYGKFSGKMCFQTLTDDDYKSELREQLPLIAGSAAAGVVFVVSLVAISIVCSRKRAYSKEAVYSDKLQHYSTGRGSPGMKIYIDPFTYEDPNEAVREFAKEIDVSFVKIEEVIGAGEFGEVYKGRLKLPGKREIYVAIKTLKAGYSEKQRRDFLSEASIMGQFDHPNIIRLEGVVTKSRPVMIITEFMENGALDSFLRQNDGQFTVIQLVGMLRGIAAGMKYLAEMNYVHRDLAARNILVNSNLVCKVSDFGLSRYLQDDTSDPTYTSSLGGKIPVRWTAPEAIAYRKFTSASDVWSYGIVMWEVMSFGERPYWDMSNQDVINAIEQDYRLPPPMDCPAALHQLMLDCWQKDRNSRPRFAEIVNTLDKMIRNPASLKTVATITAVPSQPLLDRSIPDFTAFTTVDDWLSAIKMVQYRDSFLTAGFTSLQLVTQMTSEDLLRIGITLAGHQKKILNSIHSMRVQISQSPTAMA
Conditions: Protein EPHB1; average of three replicates. Put shortly: as §1

Assay [7] addresses T7, ~100 representative kinases (Homo sapiens, UniProt Q13043).
T7 construct: Recombinant protein kinase domains with a concentration of 2 μM
T7 sequence (Q13043 1-487): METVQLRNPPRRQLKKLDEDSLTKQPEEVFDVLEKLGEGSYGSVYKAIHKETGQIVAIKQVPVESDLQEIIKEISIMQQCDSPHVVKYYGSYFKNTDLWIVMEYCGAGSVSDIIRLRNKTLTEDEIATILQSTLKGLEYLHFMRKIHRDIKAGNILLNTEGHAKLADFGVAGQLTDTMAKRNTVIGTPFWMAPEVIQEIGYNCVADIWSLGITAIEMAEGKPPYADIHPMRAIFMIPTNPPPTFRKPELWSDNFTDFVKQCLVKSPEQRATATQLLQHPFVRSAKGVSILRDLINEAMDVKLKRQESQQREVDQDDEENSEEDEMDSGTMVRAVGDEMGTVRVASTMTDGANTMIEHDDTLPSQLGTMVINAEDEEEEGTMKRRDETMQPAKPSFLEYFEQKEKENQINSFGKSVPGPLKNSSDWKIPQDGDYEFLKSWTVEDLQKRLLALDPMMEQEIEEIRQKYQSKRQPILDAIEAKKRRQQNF
Conditions: Protein STK4; DSF; average of three replicates. The method in brief:
as §1

For assay [8], the target named is T8, ~100 representative kinases (Homo sapiens, UniProt Q13554).
T8 construct: Recombinant protein kinase domains with a concentration of 2 μM
Conditions: Protein CAMK2B; average of three replicates. Put shortly: as §1

In assay [9] the target is T9, ~100 representative kinases (Homo sapiens, UniProt Q8TDX7).
T9 construct: Recombinant protein kinase domains with a concentration of 2 μM
Conditions: protein NEK7; average of three replicates. Put shortly:
as §1

Assay [10] has as its target T10, ~100 representative kinases (Homo sapiens, UniProt Q9NSY1).
T10 construct: Recombinant protein kinase domains with a concentration of 2 μM
Conditions: Protein BMP2K; average of three replicates. Put shortly: as §1

The structures appear in SMILES notation.

T9 sequence (Q8TDX7 whole entry, the tested form may be a part): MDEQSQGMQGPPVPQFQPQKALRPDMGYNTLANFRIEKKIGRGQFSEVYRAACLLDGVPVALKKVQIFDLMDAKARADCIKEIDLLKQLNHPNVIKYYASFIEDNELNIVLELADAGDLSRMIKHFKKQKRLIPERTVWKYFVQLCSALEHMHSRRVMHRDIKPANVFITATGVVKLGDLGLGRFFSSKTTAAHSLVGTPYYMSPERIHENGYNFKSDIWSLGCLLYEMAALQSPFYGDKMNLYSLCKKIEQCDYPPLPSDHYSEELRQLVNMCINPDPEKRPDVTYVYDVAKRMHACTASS
T10 sequence (Q9NSY1 whole entry, the tested form may be a part): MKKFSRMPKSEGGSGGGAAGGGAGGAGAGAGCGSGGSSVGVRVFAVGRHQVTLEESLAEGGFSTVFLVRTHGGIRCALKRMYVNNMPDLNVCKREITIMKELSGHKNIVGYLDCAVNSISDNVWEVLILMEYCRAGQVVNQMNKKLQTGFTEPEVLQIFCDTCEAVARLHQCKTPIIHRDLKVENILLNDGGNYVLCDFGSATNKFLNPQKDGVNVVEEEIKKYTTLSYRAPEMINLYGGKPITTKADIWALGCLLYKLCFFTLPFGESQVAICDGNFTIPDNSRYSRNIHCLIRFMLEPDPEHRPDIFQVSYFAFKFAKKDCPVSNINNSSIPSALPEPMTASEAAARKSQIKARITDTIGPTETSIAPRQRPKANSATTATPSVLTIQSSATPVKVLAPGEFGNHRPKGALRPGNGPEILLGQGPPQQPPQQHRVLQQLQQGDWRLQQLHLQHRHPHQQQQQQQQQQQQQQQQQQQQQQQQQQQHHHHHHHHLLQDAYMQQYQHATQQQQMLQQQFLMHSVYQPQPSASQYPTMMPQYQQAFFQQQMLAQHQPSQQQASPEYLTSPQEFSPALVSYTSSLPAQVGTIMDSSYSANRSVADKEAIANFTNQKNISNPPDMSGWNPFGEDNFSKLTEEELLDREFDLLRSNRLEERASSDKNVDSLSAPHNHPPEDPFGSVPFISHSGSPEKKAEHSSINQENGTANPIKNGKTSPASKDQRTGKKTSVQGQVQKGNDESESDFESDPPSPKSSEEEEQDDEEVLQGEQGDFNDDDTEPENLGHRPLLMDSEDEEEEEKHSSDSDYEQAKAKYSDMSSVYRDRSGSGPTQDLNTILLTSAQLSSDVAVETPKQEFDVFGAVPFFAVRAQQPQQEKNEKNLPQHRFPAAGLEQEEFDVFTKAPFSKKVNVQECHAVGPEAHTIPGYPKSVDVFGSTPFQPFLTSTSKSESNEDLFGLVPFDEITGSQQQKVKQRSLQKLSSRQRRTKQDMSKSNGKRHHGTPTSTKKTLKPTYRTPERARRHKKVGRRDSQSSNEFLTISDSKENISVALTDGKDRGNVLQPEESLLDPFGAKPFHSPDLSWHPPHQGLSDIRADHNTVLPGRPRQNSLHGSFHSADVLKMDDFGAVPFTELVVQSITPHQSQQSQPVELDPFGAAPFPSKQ
T1 sequence (O96017 whole entry, the tested form may be a part): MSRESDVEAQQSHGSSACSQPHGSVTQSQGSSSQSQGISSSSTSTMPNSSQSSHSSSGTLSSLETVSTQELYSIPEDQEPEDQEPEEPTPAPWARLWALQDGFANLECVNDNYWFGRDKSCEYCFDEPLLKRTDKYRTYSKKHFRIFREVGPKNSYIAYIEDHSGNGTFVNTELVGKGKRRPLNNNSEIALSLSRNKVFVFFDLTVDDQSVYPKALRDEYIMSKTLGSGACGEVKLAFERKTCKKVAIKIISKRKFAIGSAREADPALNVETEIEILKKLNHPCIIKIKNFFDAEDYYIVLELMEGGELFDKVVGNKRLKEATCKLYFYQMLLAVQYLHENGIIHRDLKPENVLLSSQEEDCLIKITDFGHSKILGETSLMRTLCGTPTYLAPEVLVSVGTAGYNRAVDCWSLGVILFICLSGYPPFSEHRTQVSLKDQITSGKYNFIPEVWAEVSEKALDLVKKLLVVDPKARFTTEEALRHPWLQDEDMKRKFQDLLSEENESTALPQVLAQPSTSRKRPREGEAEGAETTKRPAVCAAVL
T8 sequence (Q13554 whole entry, the tested form may be a part): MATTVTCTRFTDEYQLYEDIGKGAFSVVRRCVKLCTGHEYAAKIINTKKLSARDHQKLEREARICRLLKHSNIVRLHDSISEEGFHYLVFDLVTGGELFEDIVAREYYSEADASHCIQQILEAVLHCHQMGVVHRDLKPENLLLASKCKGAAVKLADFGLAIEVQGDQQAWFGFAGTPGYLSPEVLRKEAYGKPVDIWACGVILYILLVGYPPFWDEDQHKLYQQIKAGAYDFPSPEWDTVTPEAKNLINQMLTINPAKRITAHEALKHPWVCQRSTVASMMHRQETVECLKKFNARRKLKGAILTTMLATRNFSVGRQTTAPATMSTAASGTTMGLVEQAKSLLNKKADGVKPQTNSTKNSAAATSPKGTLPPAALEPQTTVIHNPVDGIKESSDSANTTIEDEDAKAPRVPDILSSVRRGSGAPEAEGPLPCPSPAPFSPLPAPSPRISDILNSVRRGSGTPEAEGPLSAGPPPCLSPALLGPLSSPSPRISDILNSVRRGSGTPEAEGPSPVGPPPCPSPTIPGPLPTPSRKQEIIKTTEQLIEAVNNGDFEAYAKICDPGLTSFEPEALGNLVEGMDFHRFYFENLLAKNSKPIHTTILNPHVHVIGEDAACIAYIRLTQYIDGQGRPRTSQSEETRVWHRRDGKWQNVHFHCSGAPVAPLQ
T2 sequence (P17948 27-1338): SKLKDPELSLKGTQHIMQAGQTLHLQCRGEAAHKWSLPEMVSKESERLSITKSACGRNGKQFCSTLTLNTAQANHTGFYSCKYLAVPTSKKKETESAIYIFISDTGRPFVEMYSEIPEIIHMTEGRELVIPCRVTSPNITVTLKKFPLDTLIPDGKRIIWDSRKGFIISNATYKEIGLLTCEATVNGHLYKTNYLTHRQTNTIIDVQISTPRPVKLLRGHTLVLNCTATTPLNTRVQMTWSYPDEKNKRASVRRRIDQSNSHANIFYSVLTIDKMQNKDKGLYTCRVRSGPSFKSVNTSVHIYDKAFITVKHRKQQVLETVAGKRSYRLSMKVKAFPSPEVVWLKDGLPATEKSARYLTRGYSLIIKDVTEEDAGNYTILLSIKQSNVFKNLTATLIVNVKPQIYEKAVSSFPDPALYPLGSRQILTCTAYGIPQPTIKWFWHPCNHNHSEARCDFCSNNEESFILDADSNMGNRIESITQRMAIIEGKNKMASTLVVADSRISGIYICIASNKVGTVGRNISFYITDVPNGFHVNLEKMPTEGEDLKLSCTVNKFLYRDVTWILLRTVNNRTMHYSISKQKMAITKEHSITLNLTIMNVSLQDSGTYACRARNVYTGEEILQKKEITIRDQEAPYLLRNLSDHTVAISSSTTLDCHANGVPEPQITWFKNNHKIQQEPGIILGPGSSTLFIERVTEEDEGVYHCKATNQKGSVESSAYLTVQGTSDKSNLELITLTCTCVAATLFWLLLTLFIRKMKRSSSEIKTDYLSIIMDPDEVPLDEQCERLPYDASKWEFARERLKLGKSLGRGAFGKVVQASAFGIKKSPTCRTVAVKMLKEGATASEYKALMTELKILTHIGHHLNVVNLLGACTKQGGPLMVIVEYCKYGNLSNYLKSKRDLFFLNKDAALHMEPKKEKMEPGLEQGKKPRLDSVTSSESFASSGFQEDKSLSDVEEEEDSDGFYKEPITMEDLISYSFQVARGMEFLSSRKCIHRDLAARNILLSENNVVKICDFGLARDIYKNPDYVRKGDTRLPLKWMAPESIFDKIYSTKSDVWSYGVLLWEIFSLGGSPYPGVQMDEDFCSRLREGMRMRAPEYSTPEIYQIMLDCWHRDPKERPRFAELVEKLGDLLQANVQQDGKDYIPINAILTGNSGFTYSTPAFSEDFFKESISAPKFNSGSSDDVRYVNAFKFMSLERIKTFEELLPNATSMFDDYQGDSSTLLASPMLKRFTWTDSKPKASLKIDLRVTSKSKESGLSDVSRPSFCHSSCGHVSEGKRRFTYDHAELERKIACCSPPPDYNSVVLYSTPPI
T4 sequence (P49137 whole entry, the tested form may be a part): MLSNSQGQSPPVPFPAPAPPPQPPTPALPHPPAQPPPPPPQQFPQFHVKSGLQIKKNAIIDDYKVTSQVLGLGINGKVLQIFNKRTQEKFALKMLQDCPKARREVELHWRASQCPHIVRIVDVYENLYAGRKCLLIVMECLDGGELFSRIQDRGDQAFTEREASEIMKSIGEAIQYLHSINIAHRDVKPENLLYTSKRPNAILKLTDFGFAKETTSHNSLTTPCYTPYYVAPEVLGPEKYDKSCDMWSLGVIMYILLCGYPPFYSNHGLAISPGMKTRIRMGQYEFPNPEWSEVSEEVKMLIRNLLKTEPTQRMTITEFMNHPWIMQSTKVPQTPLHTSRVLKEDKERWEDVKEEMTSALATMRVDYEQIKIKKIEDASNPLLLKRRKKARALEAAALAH
T3 sequence (P19784 whole entry, the tested form may be a part): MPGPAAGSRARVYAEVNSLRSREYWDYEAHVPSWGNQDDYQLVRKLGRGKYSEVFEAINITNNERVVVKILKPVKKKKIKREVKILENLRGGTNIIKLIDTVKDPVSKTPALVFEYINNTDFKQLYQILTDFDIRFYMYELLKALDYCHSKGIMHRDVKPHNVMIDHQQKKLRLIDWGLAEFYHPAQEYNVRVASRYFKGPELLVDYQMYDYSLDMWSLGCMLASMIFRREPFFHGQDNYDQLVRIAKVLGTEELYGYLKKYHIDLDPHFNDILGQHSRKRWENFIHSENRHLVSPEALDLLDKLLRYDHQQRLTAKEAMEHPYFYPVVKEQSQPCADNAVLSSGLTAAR

As for `O=C(Nc1cccc(-c2c[nH]c3ncnc(N4CCOCC4)c23)c1)C1(C(=O)Nc2cc(Br)c(F)cc2F)CC1` [Compound 25], the dTm in [1] was 2.02 K; in assay [2], 1.86 K; in assay [3], 1.70 K; in assay [4], 0.00186 K; in assay [5], -3.69 K; in assay [6], -4.24 K. Moreover, the dTm in assay [7] is 0.00 K; in [8], 1.90 K; in assay [9], 0.26 K; in assay [10] it was 6.63 K.

`O=C(Nc1cccc(-c2c[nH]c3ncnc(N4CCOCC4)c23)c1)C1(C(=O)Nc2ccc(F)c(Br)c2F)CC1` [Compound 26]: the dTm in assay [1] was 2.81 K; in [2] it was 2.22 K; in assay [3] it was 4.72 K; in [4], -1.06 K; in assay [5], -4.02 K; in [6], -6.10 K. Besides, the dTm in assay [7] is given as 0.00 K; in assay [8], 1.60 K; in assay [9], -0.33 K; in assay [10], 9.57 K.

With `O=C(Nc1cc(F)cc(Br)c1)C1(C(=O)Nc2cccc(-c3c[nH]c4ncnc(N5CCOCC5)c34)c2)CC1` [Compound 27], the dTm in [1] is listed as 1.74 K; in assay [2], 1.63 K; in assay [3] it was 2.42 K; in assay [4] it was 0.07 K; in assay [5], -2.11 K; in assay [6], -2.93 K. The dTm in assay [7] was 0.00 K; in assay [8], 1.75 K; in assay [9], -0.08 K; in [10], 5.45 K.

For `CC(C)(C)c1cc(NC(=O)Nc2cccc(-c3c[nH]c4ncnc(N5CCOCC5)c34)c2)n(-c2ccc3ncccc3c2)n1` [Compound 28], the dTm in [1] was 10.72 K; in assay [2] it was 12.33 K; in assay [3], -0.38 K; in assay [4], 0.51 K; in assay [5], 2.21 K; in assay [6], 11.35 K. In addition, the dTm was 8.26 K in assay [7], 1.84 K in [8], 2.34 K in assay [9] and 6.24 K in [10].

As for `Cc1ccc(-n2nc(C(C)(C)C)cc2NC(=O)Nc2cccc(-c3c[nH]c4ncnc(N5CCOCC5)c34)c2)cc1` [Compound 29], the dTm was 12.51 K in assay [1]; 12.63 K in [2]; -2.10 K in assay [3]; -0.55 K in [4]; -0.44 K in assay [5]; 5.08 K in assay [6]. Moreover, the dTm in assay [7] is listed as 8.44 K; in assay [8], -0.15 K; in assay [9] it was -0.81 K; in assay [10] it was 7.54 K.

`Cc1ccc(-n2nc(C(C)(C)C)cc2NC(=O)Nc2cccc(-c3c[nH]c4nc(Cl)nc(N5CCOCC5)c34)c2)cc1` [Compound 30]: the dTm is on record as 4.41 K in [1]; 7.13 K in [2]; -4.20 K in assay [3]; -0.50 K in assay [4]; -0.71 K in assay [5]; -0.80 K in assay [6]. Besides, the dTm was 4.23 K in assay [7], -1.25 K in [8], -1.05 K in [9] and 1.64 K in [10].

Turning to `CC(=O)N1CCN(c2nc(Cl)nc3[nH]cc(-c4cccc(NC(=O)Nc5cc(C(C)(C)C)nn5-c5ccc(C)cc5)c4)c23)CC1` [Compound 31], the dTm in [1] is given as 5.59 K; in assay [2], 7.62 K; in [3] it was -3.51 K; in assay [4], -0.40 K; in assay [5], -1.71 K; in assay [6] it was 0.39 K. Besides, the dTm in assay [7] was 4.59 K; in [8], -1.59 K; in [9], -0.91 K; in [10], 1.28 K.

Take `CCSc1nc(NC)c2c(-c3cccc(NC(=O)Nc4cc(C(C)(C)C)nn4-c4ccc(C)cc4)c3)c[nH]c2n1` [Compound 32]: the dTm is on record as 3.19 K in assay [1]; 1.15 K in [2]; -0.62 K in assay [3]; 0.11 K in assay [4]; 0.87 K in assay [5]; 0.21 K in assay [6]. Besides, the dTm was 0.80 K in [7], 0.33 K in assay [8], -0.18 K in assay [9] and 0.75 K in [10].

In the case of `COc1cc(C(=O)N2CCOCC2)c(F)cc1Nc1nc(N(C)C)c2c(Cl)c[nH]c2n1` [Compound 36], the dTm in [1] was 13.85 K; in assay [2] it was 0.33 K; in assay [3], 1.00 K; in [4] it was 2.68 K; in assay [5] it was -0.68 K; in [6], -0.27 K. The dTm is listed as -1.57 K in assay [7], 2.02 K in [8], -0.65 K in [9] and 1.71 K in [10].

For the molecule `COc1cc(S(C)(=O)=O)ccc1Nc1nc(N(C)C)c2c(Cl)c[nH]c2n1` [Compound 37], the dTm was 7.39 K in assay [1]; -0.32 K in [2]; 1.16 K in [3]; 0.98 K in assay [4]; -1.77 K in [5]; -0.51 K in assay [6]. Besides, the dTm in assay [7] is -0.52 K; in assay [8], -0.66 K; in [9] it was -0.25 K; in assay [10], 0.08 K.

For the molecule `CCNc1nc(Nc2cc(F)c(C(=O)N3CCOCC3)cc2OC)ncc1C(F)(F)F` [GNE-7915], the dTm in assay [1] was 0.72 K; in assay [2], 1.69 K; in [3], 2.65 K; in [4], -0.23 K; in assay [5] it was 0.39 K; in [6], 0.07 K. Moreover, the dTm in assay [7] is 0.31 K; in assay [8], 0.10 K; in assay [9], 0.34 K; in [10] it was 8.11 K.
